Data published in patent US20220119868A1, “PROFILING RNA-SMALL MOLECULE BINDING SITES WITH OLIGONUCLEOTIDES” (priority 2018, published 2022).

Experiments:
[1] = target: HCV RNA motif 5′GUG3′/3′C_C5′ (SL I and SL III); assay: In solution, fluorescence-based binding affinity assay, HCV RNA motifs; set-up: species or system Hepatitis C virus
Description: (§1) The compounds bind their cognate loops in the 3′ UTR with mid-nanomolar to low micromolar affinities (Table 1). It was next determined if the identified compounds could inhibit HCV RNA replication in HCV subgenomic replicon cells, in particular SGR-Neo-RLuc-JFH1-2A replicon cells established in Huh-7.5 (human hepatoma cells). In this system, an autonomously replicating viral RNA replicon is used to monitor efficiently RNA replication of the virus in the absence of spread of viral RNA to adjacent cells. This is achieved by replacing the structural proteins required to assembly progeny virions with a drug selectable marker (Neo) and a Renilla luciferase (RLuc) reporter gene. Once this replicon has been delivered to human hepatoma cells and selection with G418 (conferred by Neo selectable marker) has occurred, the expression and Renilla luciferase activity is directly correlated with the level of HCV replication^57.
(§2) where n1 is the size of Population 1 (number of sequencing reads for a given RNA from RNA-seq analysis of the selected library), n2 is the size of Population 2 (number of sequencing reads for the same RNA from RNA-seq analysis of the starting library), p1 is the observed proportion of Population 1 (the number of reads for a given RNA from selected library/total number of reads), and p2 is the observed proportion for Population 2 (the number of reads for the same RNA in the starting library/total number of reads). Generation of Logos and DiffLogos: Zobs corresponding to the highest (enriched) 0.5% and lowest (discriminated against) 0.5% scores were analyzed to generate consensus sequences, or Logos. The resulting list of sequences were converted to position weight matrix (PWM) lists for each compound. “Enriched” and “discriminated” sequences were kept separate using JMP®, Version <13.2.1>. SAS Institute Inc., Cary, N.C., 1989-2007. The R package Difflogo,^16 which is part of Bioconductor, was utilized to create the sequence logos from PWM lists for each compound and visually compare the differences between them. Binding Affinity Measurements. Dissociation constants were determined using an in solution, fluorescence-based assay. […] Serial dilutions (1:2) of the small molecule were then completed in 1× Assay Buffer supplemented with 1 mM MgCl2. The solutions were incubated for 30 min at room temperature, transferred to a 96-well plate, and fluorescence intensity measured on a BioTek-FLx800 plate reader. The change in fluorescence intensity as a function of small molecule concentration was fit to a one site binding model per equation 3: […]
(§3) Effect of compounds on HCV replication. […] Cytotoxicity assays. […] Oligonucleotide profiling of target engagement in vitro. […] Primers can be found in Table 4. […] Inhibition of kinases. […] . Figure S7C).

[2] = target: HCV RNA motif 5′CUG3′/3′G_C5′ (SL II); assay: as above; set-up: species or system Hepatitis C virus
Description: as §1, §2, §3

[3] = target: HCV RNA motif 5′UAG3′/3′A_C5′ (SL I); assay: as above; set-up: species or system Hepatitis C virus
Description: as §1, §2, §3

[4] = test system: HCV replication, SGR-Neo-RLuc-JFH1-2A replicon cells established in Huh-7.5; assay: HCV replication in subgenomic replicon cells (Renilla luciferase); format: cell-based, Hepatitis C virus; conditions: for IC50: Hepatitis C virus, Huh7.5, read-out: IC50, inhibition of HCV replication
Description: as §1
They were therefore assayed for their ability to inhibit HCV replication using this replicon system, with DMSO vehicle and 2′-C-methyladenosine^17 triphosphate serving as negative and positive controls, respectively.
as §3

O=C(Nc1cccc(NC(=O)Nc2cc(C(=O)Nc3ccc(C4=NCCN4)cc3)ccc2C(=O)Nc2ccc(C3=NCCN3)cc2)c1)Nc1cc(C(=O)Nc2ccc(C3=NCCN3)cc2)ccc1C(=O)Nc1ccc(C2=NCCN2)cc1 [Compound 7]
Kd [1]: 470 ± 32 nM | Kd [2]: 820 ± 82 nM | Kd [3]: 460 ± 70 nM | IC50 [4]: 17000 ± 500 nM

O=C(Nc1ccc(C2=NCCN2)cc1)c1cc(C(=O)Nc2ccc(C3=NCCN3)cc2)cc(C(=O)Nc2ccc(C3=NCCN3)cc2)c1 [Compound 8]
Kd [1]: 1400 ± 160 nM | Kd [2]: 1400 ± 211 nM | Kd [3]: 849 ± 150 nM | IC50 [4]: 14000 ± 1000 nM | effect on viral replication together with ASO ([4]; with ASO Control binding 750 nucleotides downstream): less robust | effect on viral replication together with ASO ([4]; with ASO complementary to SL I, luciferase): synergistic effect
